We go through five compounds from article PMC7468908 (Nutrients, 2020).

Structures are written as SMILES. Read-outs that look alike come from different tables or passages of the source.

One series deals with T1, OATP2B1 (Homo sapiens, UniProt O94956).
T1 construct: host or cells: A431
T1 sequence (O94956 1-709): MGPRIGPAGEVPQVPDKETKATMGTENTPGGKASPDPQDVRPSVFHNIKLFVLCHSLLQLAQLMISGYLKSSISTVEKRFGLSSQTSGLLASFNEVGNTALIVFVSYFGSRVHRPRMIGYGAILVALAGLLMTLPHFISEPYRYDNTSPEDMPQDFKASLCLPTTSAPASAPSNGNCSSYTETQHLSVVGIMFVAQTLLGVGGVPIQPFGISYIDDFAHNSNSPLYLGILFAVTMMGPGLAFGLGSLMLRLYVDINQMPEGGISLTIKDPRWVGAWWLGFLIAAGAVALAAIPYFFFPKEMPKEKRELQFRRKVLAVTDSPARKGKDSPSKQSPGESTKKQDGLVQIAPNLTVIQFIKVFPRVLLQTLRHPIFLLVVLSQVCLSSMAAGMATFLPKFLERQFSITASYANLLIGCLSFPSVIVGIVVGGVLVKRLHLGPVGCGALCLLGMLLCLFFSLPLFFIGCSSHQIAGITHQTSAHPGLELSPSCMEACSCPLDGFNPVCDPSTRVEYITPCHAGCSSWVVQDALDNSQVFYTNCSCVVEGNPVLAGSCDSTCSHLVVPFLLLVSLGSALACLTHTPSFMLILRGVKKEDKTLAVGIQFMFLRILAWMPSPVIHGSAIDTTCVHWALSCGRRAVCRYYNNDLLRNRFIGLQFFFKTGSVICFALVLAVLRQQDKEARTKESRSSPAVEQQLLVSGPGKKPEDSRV
Kind of series: OATP2B1-mediated pyranine uptake in A431 cells overexpressing OATP2B1. The following applies: 15 min; for IC50: A431-OATP2B1 cells. It counts as cell-based. As to the method:
A431 cells overexpressing human OATPs, 1A2 (BC042452, HsCD00333163), 1B1 (Gene ID: AB026257), 1B3 (BC141525, HsCD00348132) or 2B1 (BC041095.1, HsCD00378878), or their mock transfected controls, were generated as previously described. Cells were cultured in Dulbecco’s Modified Eagle Medium (DMEM; Thermo Fischer Scientific, Waltham, MA, USA) supplemented with 10% fetal bovine serum, 2 mM L-glutamine, 100 units/mL penicillin and 100 µg/mL streptomycin, at 37 °C with 5% CO2.
The interaction between flavonoids and OATPs was investigated in an indirect assay employing the fluorescent dye substrates, pyranine and sulforhodamine 101 [51, 52]. Briefly, A431 cell overexpressing OATPs, 1A2, 1B1, 1B3 or 2B1, or their mock transfected controls, were seeded on 96-well plates in a density of 8x10^4 cells/well in 200 μL DMEM one day prior to the transport measurements. […] The reaction was started by the addition of 50 μL uptake buffer containing pyranine in a final concentration of 10 μM (OATP1B1) or 20 μM (OATP1B3 and OATP2B1), or 0.5 μM sulforhodamine 101 (OATP1A2). Thereafter, cells were incubated at 37°C for 15 min (OATP1B1 and OATP2B1), 10 min (OATP1A2), or 30 min (OATP1B3). The reactions were stopped by removing the supernatants, then the cells were washed three times with ice-cold PBS. Fluorescence (in 200 μL PBS/well) was determined employing an Enspire plate reader (Perkin Elmer, Waltham, MA) ex/em: 403/517 nm (pyranine) or 586/605 nm (sulforhodamine 101). OATP-dependent transport was calculated by extracting fluorescence measured in mock transfected cells. Transport activity was calculated based on the fluorescence signal in the absence (100%) of flavonoids. Experiments were repeated at least in three biological replicates. IC50 values were calculated by Hill1 fit, using the Origin Pro8.6 software ([…]).

For another series, the target named is T2, BCRP (Homo sapiens, UniProt Q9UNQ0).
T2 construct: made in house; host or cells: Sf9 insect cells (baculovirus)
T2 sequence (Q9UNQ0 1-655): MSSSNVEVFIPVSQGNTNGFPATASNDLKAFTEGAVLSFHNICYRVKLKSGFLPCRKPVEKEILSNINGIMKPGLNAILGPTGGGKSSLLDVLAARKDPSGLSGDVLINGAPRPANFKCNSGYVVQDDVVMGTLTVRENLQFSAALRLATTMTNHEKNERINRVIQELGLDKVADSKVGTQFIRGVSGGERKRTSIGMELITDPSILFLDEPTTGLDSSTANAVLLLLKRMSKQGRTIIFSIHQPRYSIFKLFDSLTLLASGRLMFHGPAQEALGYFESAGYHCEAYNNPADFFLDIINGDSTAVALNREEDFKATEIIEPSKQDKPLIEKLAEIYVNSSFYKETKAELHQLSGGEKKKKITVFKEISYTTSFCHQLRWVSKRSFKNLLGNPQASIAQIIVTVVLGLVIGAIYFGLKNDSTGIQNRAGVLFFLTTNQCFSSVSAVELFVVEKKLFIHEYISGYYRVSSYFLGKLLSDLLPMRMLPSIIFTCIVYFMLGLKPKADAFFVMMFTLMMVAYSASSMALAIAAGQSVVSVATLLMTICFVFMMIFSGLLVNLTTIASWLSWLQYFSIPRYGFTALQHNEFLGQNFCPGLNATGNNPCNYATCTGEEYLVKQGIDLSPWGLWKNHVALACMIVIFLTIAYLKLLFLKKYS
Briefly: BCRP vanadate sensitive ATPase activity in Sf9 membrane vesicles. It counts as biochemical. The following applies: 3 mM Mg-ATP, 25 min, 37 °C. The protocol:
ATPase activity was measured on Sf9 membrane vesicles containing human BCRP prepared as described in 2.5. Appropriate amounts of vesicles (10 μg/50 μL) were used in the assays. Experimental parameters were the same as it has been earlier reported. Membrane vesicles were incubated with 3 mM of Mg-ATP for 25 min at 37 °C. Effects of flavonoids were investigated up to 50 μM. […] ABC transporter function was determined as vanadate sensitive ATPase activity. Liberated inorganic phosphate was measured by a colorimetric reaction as described. Absorbance of samples was measured after 25 min at 660 nm.

[1] abbreviates: 20 μM pyranine, read-out: IC50 for OATP2B1.

As usually defined, the IC50 is the concentration at which inhibition is half-maximal. On to `COc1cc(-c2oc3cc(O)cc(O)c3c(=O)c2OC2OC(C(=O)O)C(O)C(O)C2O)ccc1O` (stereo not drawn) [I3G, isorhamnetin-3-glucuronide], for which the “concentration causing statistically significant (p < 0.01) inhibition, OATP2B1” value at OATP2B1 (20 μM pyranine) was 1.6 µM. Besides, the IC50 on OATP2B1 (setting [1]) came out at 4140 nM. Besides, the “concentration inducing statistically significant (p < 0.01) increase in ATPase activity of BCRP” value on BCRP came to 10000 nM.

`COc1cc(-c2oc3cc(O)cc(O)c3c(=O)c2O)ccc1O` [IR, isorhamnetin]: the “concentration causing statistically significant (p < 0.01) inhibition, OATP2B1” value at OATP2B1 (20 μM pyranine) turned out to be 0.6 µM. Moreover, the IC50 at OATP2B1 (IC50 for OATP2B1, 20 μM pyranine) amounted to 820 nM. For the same compound, the “concentration inducing statistically significant (p < 0.01) increase in ATPase activity of BCRP” value on BCRP is 20 nM.

Take `O=C(O)C1OC(Oc2c(-c3ccc(O)c(O)c3)oc3cc(O)cc(O)c3c2=O)C(O)C(O)C1O` (stereo not drawn) [Q3G, quercetin-3-glucuronide]: the “concentration causing statistically significant (p < 0.01) inhibition, OATP2B1” value at OATP2B1 (20 μM pyranine) is 3.1 µM. On OATP2B1 (setting [1]), the IC50 stood at 4850 nM. Further, the “concentration inducing statistically significant (p < 0.01) increase in ATPase activity of BCRP” value on BCRP is 50000 nM.

As for `O=c1c(O)c(-c2ccc(O)c(OS(=O)(=O)O)c2)oc2cc(O)cc(O)c12` [Q3′S, quercetin-3′-sulfate], at OATP2B1 (20 μM pyranine), the “concentration causing statistically significant (p < 0.01) inhibition, OATP2B1” value turned out to be 0.3 µM. For the same compound, the IC50 on OATP2B1 (setting [1]) amounted to 430 nM. Besides, at BCRP, the “concentration inducing statistically significant (p < 0.01) increase in ATPase activity of BCRP” value turned out to be 400 nM.

As for `O=c1c(O)c(-c2ccc(O)c(O)c2)oc2cc(O)cc(O)c12` [Q, quercetin], the “concentration causing statistically significant (p < 0.01) inhibition, OATP2B1” value at OATP2B1 (20 μM pyranine) stood at 0.3 µM. The IC50 on OATP2B1 (setting [1]) was 340 nM. Further, the “concentration inducing statistically significant (p < 0.01) increase in ATPase activity of BCRP” value on BCRP stood at 80 nM.
